Data on one compound can be found in patent publication US11654203B2.

In data set [1] the test system is human colorectal cancer cells (HCT15). As to the kind of experiment: NanoSPECT/CT imaging of colorectal cancer animal model. The format is in vivo, BALB/c nude mouse. To be noted: caudal vein, 25 mCi/kg, imaged at 2, 4, 24, 48 h. As for the experimental part:
(1) Each BALB/c nude mouse that was 8 weeks old was subjected to subcutaneous injection of human colorectal cancer cells (HCT15, 1*10^6 cells) on a right hind leg, grew for 10-14 d, and started to be dosed with the drug when a cell tumor grew to a size of 50-100 mm^3.
(3) NanoSPECT/CT image analysis was carried out at 2nd h, 4th h, 24th h and 48th h after animal dosage (brand: Mediso).
(4) Obtained images were subjected to image recombination and outputting by VivoQuamt software.

Data set [2] has the same test system. As to the kind of experiment: Colorectal cancer animal bio-distribution (gamma counter). Type of data set: in vivo, BALB/c nude mouse. The following applies: 25 mCi/kg, n=3.
Source text: (3) There were four time points in each group and three mice at each time point.
(4) The animals were sacrificed at 2nd h, 4th h, 24th h and 48th h after dosage to take organs (brain, heart, lung, liver, kidney, spleen, stomach, large intestine, small intestine, tumor, muscle and blood).
(5) Tissue organs were weighed, and radioactivities were counted and read by a gamma counter.
(6) With a percentage (%) of a radioactivity count of Injected Dose (ID) in a radioactivity count of each gram (g) of tissue as unit (% ID/g), the line graph was drawn for showing.
The value was a percentage of Injected Dose in each gram of organs (% ID/g). […] Data was represented by an average value ±SEM (n=3).

Take `O=C([O-])CN1CCN(CC(=O)[O-])CCN(CC(=O)[O-])CCN(CC(=O)[O-])CC1.[111In+3]` [^111In-DOTA]: the “drug gathering at tumor hypoxia position, nanoSPECT/CT” value in data set [1] is recorded as “no obvious drug gathering phenomenon”. Further, the tumor absorbability in data set [2] (2nd h after caudal vein dosage) worked out at 0.88 % ID/g. Besides, the “gathering degree at the tumor hypoxia position” value in data set [2] (24th h after caudal vein dosage) turned out to be 1.08 % ID/g.
